The results in this text go back to patent US4677105A, “2-alkoxycarbonylalkyl-3-oxo-5,6-diaryl-as-triazines having utility as therapeutics” (PF Medicament, priority 1985, dated 1987).

Read-outs that look alike come from different tables or passages of the source.

The nature of one series: solubility. As to conditions: in words. The format is physicochemical.
Series [1] deals with phenyl benzoquinone contortion. The experiment in a line: phenyl benzoquinone contortion test (analgesic properties). As to conditions: 0.5 h. Format: in vivo, mouse. On the procedure: The activity in the phenyl benzoquinone contortion test of […] et al., J. Pharm. Exptl. […] Dose expressed in mg/kg in the mouse, 30 minutes before intraperitoneal injection of the algogenic agent. The results are expressed in percentage variation of the number of contortions.

Series [2] in a line: analgesic activity, test not specified. Format: in vivo. As to conditions: in words.
Where [3] appears, read: mouse, oral, 30 minutes before intraperitoneal injection of the algogenic agent, read-out: ED50.

As to `CCOC(=O)Cn1nc(-c2ccc(OC)cc2)c(-c2ccc(OC)cc2)nc1=O` [Example 1, 2-ethoxy carbonyl-methyl-3-oxo-5,6-di(paramethoxyphenyl)-as-triazine], in the series “solubility”, the “solubility (insoluble in)” value was “Insoluble in water, dilute bases and acids”; the “solubility (soluble in)” value was “Soluble in methylene chloride, chloroform, ether; alcohols and hot benzene”.

The term ED50 denotes the dose at which the effect has come halfway, by size or by number of responders. On to `CCOC(=O)C(C)n1nc(-c2ccc(OC)cc2)c(-c2ccc(OC)cc2)nc1=O` (centres unmarked) [Example 3, 2-(1-ethoxycarbonyl-1-ethyl)-3-oxo-5,6-di(paramethoxyphenyl)-as-triazine], for which the ED50 in series [1] (setting [3]) came to 13 mg/kg. For the same compound, in “solubility”, the “solubility (insoluble in)” value was “Insoluble in water, dilute bases and acids”; the “solubility (soluble in)” value was “Soluble in hot alcohols, benzene, chloroform, methylene chloride and ether”.

`COC(=O)C(C)n1nc(-c2ccc(OC)cc2)c(-c2ccc(OC)cc2)nc1=O` (centres unmarked) [Example 6, 2-(1-methoxycarbonylethyl)-3-oxo-5,6-di(paramethoxyphenyl)-as-triazine]: in series [1] (setting [3]), the ED50 came out at 12 mg/kg. For the same compound, in the series “solubility”, the “solubility (insoluble in)” value was “Insoluble: Water, ether” and the “solubility (soluble in)” value is given as “Soluble in hot alcohols”.

For the compound `CCOC(=O)C(C)n1nc(-c2ccc(OC)cc2)c(-c2ccc(Cl)cc2)nc1=O` (centres unmarked) [Example 10, 2-(1-ethoxycarbonyl-1-ethyl)-3-oxo-5,6-(p-chloro-p-methoxy)-5,6-as-triazine], the ED50 in series [1] (setting [3]) worked out at 12 mg/kg. For the same compound, in series [2], the analgesic activity result is “effective analgesic agent”.

For `CCOC(=O)C(CC)n1nc(-c2ccc(OC)cc2)c(-c2ccc(OC)cc2)nc1=O` (centres unmarked) [Example 4, 2-(1-ethoxycarbonyl-1-propyl)-3-oxo-5,6-di(paramethoxyphenyl)-as-triazine], the ED50 in series [1] (setting [3]) stood at 11 mg/kg. Besides, in the series “solubility”, the “solubility (insoluble in)” value was “Insoluble in water, dilute bases and acids, ether”; the “solubility (soluble in)” value is “Soluble in hot alcohols, benzene, methylene chloride, chloroform”.

In series [1] (Mus musculus, po), `CC(=O)Oc1ccccc1C(=O)O` [Aspirin, reference compound] returned an ED50 of 100 mg/kg.

With `CCOC(=O)C(C)n1nc(-c2ccccc2)c(-c2ccccc2)nc1=O` (centres unmarked) [Example 7, 2-(1-ethoxycarbonyl-1-ethyl)-3-oxo-5,6-di (phenyl)-as-triazine], the ED50 in series [1] (setting [3]) amounted to 18 mg/kg. In addition, the analgesic activity result in series [2] is listed as “effective analgesic agent”.

`O=C(OCC(O)CO)c1ccccc1Nc1ccnc2cc(Cl)ccc12` (centres unmarked) [Glaphenine, reference compound]: in series [1] (setting [3]), the ED50 was 35 mg/kg.

For the compound `CCOC(=O)C(C)n1nc(-c2ccc(Cl)cc2)c(-c2ccc(Cl)cc2)nc1=O` (centres unmarked) [Example 9, 2-(1-ethoxycarbonyl-1-ethyl)-3-oxo-5,6-di (p-chlorophenyl)-as-triazine], the ED50 in series [1] (setting [3]) was determined as 10 mg/kg. The analgesic activity result in series [2] is reported as “effective analgesic agent”.

For `CCCC(C(=O)OCC)n1nc(-c2ccc(OC)cc2)c(-c2ccc(OC)cc2)nc1=O` (centres unmarked) [Example 5, 2-(1-ethoxycarbonyl-1-butyl)-3-oxo-5,6-di(paramethoxyphenyl)-as-triazine], in series [1] (setting [3]), the ED50 was determined as 16 mg/kg. Further, in “solubility”, the “solubility (insoluble in)” value is “Insoluble in water, dilute bases and acids”; the “solubility (soluble in)” value is given as “Soluble in hot alcohols, benzene, methylene chloride, chloroform, ether”.

With `CCOC(=O)C(C)n1nc(-c2ccc(O)cc2)c(-c2ccc(O)cc2)nc1=O` (centres unmarked) [Example 2, 2-(1-ethoxycarbonyl-1-ethyl)-3-oxo-5,6-di(parahydroxyphenyl)-as-triazine], in “solubility”, the “solubility (insoluble in)” value was “Insoluble in water, dilute bases and acids, benzene, chloroform, methylene chloride, ether”; the “solubility (soluble in)” value is reported as “Soluble in hot alcohols”.

As for `CCOC(=O)C(C)n1nc(-c2ccc(C)cc2)c(-c2ccc(C)cc2)nc1=O` (centres unmarked) [Example 8, 2-(1-ethoxycarbonyl-1-ethyl)-3-oxo-5,6-di(p-methylphenyl)-as-triazine], the ED50 in series [1] (setting [3]) came to 12 mg/kg. The analgesic activity result in series [2] is “effective analgesic agent”.
